“And” between values parts separate entries of the source, which are not always exact repeats. Equal entries are not always repeated.
Experiments:
Experiment in all cases: KINOMEscan competition binding
Settings in all cases: compound 10.0 µM
WNK1 (human) = WNK1 (human) (UniProt Q9H4A3)
SGK1 (human) = SGK1 (human) (UniProt O00141)
CDK11B (human) = CDK11B (human) (UniProt P21127)
CDK16 (human) = CDK16 (human) (UniProt Q00536)
PAK1 (human) = PAK1 (human) (UniProt Q13153)
MAST1 (human) = MAST1 (human) (UniProt Q9Y2H9)
MAPKAPK5 (human) = MAPKAPK5 (human) (UniProt Q8IW41)
MAP2K2 (human) = MAP2K2 (human) (UniProt P36507)
CSNK2A1 (human) = CSNK2A1 (human) (UniProt P68400)
[1] = tested on: KIT (human), P10721 [D816H]
CSNK2A2 (human) = CSNK2A2 (human) (UniProt P19784)
ALK (human) = ALK (human) (UniProt Q9UM73)
MAPK3 (human) = MAPK3 (human) (UniProt P27361)
NTRK3 (human) = NTRK3 (human) (UniProt Q16288)
FRK (human) = FRK (human) (UniProt P42685)
PAK3 (human) = PAK3 (human) (UniProt O75914)
BRAF (human) = BRAF (human) (UniProt P15056)
EIF2AK1 (human) = EIF2AK1 (human) (UniProt Q9BQI3)
FGFR2 (human) = FGFR2 (human) (UniProt P21802)
PKN3 (M.tuberculosis) = PKN3 (M.tuberculosis) (UniProt Q6P5Z2)
WNK3 (human) = WNK3 (human) (UniProt Q9BYP7)
CLK1 (human) = CLK1 (human) (UniProt P49759)
[2] = tested on: EGFR (human), P00533 [L858R]
STK33 (human) = STK33 (human) (UniProt Q9BYT3)
MAPK8 (human) = MAPK8 (human) (UniProt P45983)
RPS6KB1 (human) = RPS6KB1 (human) (UniProt P23443)
CSNK1A1 (human) = CSNK1A1 (human) (UniProt P48729)
MAP3K2 (human) = MAP3K2 (human) (UniProt Q9Y2U5)
FGFR1 (human) = FGFR1 (human) (UniProt P11362)
LATS1 (human) = LATS1 (human) (UniProt O95835)
CDC42BPA (human) = CDC42BPA (human) (UniProt Q5VT25)
MAPK9 (human) = MAPK9 (human) (UniProt P45984)
NTRK2 (human) = NTRK2 (human) (UniProt Q16620)
RPS6KA4 KD1 (human) = RPS6KA4 KD1 (human) (UniProt O75676)
CDK8 (human) = CDK8 (human) (UniProt P49336)
SGK3 (human) = SGK3 (human) (UniProt Q96BR1)
PRKAA1 (human) = PRKAA1 (human) (UniProt Q13131)
TESK1 (human) = TESK1 (human) (UniProt Q15569)
TEK (human) = TEK (human) (UniProt Q02763)

Sequence of SGK3 (human) (Q96BR1 whole entry, looked up): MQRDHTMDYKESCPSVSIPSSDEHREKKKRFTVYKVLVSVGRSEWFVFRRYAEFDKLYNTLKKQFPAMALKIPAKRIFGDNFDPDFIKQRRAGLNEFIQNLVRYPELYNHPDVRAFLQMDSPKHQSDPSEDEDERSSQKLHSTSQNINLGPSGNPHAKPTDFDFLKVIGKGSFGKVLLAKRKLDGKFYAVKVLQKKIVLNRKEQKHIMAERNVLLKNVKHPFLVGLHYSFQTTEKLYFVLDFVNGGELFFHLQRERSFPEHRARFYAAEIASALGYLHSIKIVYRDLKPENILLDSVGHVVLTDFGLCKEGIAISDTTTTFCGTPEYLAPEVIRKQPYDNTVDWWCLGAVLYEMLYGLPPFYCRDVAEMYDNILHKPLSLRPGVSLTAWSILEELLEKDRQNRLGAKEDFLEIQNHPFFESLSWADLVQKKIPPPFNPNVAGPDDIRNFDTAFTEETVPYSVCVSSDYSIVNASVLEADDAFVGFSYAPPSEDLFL
Sequence of WNK3 (human) (Q9BYP7 whole entry, looked up): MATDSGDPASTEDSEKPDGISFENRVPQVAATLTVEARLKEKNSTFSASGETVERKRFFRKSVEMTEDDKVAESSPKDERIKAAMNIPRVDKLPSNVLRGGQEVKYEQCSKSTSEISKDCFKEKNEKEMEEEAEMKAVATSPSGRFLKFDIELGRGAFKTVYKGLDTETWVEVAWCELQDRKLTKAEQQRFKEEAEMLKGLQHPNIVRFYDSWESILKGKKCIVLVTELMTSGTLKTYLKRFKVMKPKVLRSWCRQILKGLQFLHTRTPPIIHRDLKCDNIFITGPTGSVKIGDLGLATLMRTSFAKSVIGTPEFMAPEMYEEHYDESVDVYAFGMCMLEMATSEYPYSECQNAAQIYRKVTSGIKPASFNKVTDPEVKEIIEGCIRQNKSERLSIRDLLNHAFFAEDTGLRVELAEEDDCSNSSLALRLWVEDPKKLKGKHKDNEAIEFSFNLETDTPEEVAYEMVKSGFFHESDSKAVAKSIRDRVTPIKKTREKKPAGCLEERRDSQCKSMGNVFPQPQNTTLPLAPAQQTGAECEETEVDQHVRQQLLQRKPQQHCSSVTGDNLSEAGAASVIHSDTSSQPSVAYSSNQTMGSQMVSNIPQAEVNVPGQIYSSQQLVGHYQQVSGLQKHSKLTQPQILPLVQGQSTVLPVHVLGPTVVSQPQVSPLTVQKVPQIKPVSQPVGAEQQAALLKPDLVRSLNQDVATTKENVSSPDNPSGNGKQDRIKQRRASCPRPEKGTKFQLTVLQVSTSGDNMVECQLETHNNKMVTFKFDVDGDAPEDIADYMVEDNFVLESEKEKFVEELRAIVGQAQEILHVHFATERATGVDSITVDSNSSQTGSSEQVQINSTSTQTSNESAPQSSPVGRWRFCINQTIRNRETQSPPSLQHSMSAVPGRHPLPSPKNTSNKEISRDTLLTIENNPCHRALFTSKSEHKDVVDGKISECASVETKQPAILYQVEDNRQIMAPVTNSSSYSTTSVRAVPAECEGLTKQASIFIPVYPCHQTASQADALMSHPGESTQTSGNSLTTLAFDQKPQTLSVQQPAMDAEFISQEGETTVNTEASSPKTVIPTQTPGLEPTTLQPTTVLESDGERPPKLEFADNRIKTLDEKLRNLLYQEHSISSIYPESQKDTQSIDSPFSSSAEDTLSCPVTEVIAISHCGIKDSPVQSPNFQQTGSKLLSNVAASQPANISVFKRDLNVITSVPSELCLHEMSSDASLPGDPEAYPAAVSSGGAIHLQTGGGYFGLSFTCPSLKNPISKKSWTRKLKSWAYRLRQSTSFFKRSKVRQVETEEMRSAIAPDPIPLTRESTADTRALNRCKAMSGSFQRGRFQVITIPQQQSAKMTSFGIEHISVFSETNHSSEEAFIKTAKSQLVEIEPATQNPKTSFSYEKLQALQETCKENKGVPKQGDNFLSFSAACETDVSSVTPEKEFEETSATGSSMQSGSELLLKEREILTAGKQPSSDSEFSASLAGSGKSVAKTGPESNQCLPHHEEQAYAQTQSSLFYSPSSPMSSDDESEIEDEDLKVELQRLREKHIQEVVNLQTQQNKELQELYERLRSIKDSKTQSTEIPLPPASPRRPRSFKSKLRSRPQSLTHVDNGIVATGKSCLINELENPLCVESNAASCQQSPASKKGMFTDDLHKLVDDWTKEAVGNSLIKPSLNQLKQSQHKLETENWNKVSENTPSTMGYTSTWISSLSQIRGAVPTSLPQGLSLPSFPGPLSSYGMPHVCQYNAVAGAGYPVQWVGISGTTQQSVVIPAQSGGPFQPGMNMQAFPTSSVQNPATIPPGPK
Sequence of PKN3 (M.tuberculosis) (Q6P5Z2 whole entry, looked up): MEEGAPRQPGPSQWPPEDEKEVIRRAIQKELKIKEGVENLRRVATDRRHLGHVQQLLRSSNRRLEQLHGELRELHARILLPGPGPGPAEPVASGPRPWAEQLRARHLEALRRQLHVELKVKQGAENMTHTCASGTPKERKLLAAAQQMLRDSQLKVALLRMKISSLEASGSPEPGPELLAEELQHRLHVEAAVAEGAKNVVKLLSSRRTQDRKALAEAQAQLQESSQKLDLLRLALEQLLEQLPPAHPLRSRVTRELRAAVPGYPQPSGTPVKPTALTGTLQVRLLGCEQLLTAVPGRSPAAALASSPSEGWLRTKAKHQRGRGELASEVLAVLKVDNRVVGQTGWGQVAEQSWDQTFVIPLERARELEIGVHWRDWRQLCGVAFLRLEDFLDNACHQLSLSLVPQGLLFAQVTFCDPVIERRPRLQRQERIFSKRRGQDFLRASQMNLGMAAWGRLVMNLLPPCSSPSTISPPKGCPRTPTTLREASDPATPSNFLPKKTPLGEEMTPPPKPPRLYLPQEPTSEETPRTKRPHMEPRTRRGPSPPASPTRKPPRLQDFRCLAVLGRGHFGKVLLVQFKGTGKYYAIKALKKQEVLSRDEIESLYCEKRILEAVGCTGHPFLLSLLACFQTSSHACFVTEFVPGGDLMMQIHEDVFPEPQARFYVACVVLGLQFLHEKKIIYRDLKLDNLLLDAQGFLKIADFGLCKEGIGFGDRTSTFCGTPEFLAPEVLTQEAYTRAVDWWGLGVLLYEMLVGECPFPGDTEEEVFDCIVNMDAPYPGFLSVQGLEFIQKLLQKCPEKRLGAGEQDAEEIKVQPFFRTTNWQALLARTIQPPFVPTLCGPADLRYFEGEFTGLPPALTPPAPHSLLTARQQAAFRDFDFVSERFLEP
Sequence of EIF2AK1 (human) (Q9BQI3 whole entry, looked up): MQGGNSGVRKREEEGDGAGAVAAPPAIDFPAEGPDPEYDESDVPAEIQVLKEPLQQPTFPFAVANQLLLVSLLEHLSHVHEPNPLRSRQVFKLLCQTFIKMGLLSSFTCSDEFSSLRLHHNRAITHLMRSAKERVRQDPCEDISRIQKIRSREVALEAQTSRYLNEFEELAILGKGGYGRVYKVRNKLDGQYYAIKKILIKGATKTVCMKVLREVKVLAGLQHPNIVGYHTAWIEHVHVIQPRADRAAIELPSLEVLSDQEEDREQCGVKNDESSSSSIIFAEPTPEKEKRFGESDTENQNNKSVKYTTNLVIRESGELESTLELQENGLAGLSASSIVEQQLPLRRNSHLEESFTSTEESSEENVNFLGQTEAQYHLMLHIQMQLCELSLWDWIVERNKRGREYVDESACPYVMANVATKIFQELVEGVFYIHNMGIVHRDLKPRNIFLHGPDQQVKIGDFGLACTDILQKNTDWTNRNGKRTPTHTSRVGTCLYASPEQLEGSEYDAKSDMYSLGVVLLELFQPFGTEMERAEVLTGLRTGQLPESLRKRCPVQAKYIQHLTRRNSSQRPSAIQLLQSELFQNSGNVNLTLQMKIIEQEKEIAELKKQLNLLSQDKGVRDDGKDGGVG
Sequence of MAP2K2 (human) (P36507 whole entry, looked up): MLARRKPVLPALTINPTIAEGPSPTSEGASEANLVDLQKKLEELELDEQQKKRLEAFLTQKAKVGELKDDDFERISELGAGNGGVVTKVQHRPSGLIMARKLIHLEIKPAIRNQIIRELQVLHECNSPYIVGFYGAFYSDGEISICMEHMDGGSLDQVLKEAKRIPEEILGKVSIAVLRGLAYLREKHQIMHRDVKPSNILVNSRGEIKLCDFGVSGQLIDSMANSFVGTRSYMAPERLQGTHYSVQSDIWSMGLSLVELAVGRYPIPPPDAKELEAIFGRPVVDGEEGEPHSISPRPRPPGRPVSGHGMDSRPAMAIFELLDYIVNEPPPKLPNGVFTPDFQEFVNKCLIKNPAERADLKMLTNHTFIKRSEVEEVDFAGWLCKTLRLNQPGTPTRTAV
Sequence of BRAF (human) (P15056 whole entry, looked up): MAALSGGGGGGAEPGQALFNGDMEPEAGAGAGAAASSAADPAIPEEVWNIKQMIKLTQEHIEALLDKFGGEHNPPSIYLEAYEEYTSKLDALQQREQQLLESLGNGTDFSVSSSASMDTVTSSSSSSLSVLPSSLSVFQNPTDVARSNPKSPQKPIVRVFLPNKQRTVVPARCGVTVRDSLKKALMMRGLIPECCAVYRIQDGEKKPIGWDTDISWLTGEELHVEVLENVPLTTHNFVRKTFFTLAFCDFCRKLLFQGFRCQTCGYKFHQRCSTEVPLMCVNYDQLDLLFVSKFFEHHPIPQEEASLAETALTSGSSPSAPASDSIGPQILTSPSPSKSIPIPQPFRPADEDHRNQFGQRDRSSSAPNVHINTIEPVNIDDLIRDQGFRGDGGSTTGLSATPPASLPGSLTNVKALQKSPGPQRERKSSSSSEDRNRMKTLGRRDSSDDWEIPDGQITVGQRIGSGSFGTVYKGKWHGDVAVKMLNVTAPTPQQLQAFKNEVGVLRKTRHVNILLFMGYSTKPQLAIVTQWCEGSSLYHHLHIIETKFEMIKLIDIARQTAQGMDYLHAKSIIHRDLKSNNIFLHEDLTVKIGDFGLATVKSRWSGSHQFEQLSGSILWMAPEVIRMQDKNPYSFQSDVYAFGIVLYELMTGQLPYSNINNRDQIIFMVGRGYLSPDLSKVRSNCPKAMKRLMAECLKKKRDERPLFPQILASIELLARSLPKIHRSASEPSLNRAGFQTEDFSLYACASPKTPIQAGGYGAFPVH

Work on `O=c1[nH]c2ccccc2n1C1CCN(Cc2ccc(-c3nc4cc5[nH]cnc5cc4nc3-c3ccccc3)cc2)CC1` yielded a kinase still bound, per cent of control (WNK1 (human)) of 89%, a kinase still bound, per cent of control (SGK1 (human)) of 71% and a kinase still bound, per cent of control (CDK11B (human)) of 97%. For the same compound, the kinase still bound, per cent of control (CDK16 (human)) was 97%, the kinase still bound, per cent of control (PAK1 (human)) was 90% and the kinase still bound, per cent of control (MAST1 (human)) was 100%. The kinase still bound, per cent of control (MAPKAPK5 (human)) was 59%, the kinase still bound, per cent of control (MAP2K2 (human)) was 75% and the kinase still bound, per cent of control (CSNK2A1 (human)) was 96%. The kinase still bound, per cent of control [1] was 100%, the kinase still bound, per cent of control (CSNK2A2 (human)) was 92% and the kinase still bound, per cent of control (ALK (human)) was 37%. For the same compound, the kinase still bound, per cent of control (MAPK3 (human)) was 100%, the kinase still bound, per cent of control (NTRK3 (human)) was 98% and the kinase still bound, per cent of control (FRK (human)) was 100%. The kinase still bound, per cent of control (PAK3 (human)) was 72%, the kinase still bound, per cent of control (BRAF (human)) was 87% and the kinase still bound, per cent of control (EIF2AK1 (human)) was 87%. It also gave a kinase still bound, per cent of control (FGFR2 (human)) of 100%, a kinase still bound, per cent of control (PKN3 (M.tuberculosis)) of 78% and a kinase still bound, per cent of control (WNK3 (human)) of 95%. The kinase still bound, per cent of control (CLK1 (human)) was 100%, the kinase still bound, per cent of control [2] was 53% and the kinase still bound, per cent of control (STK33 (human)) was 100%. For the same compound, the kinase still bound, per cent of control (MAPK8 (human)) was 79%, the kinase still bound, per cent of control (RPS6KB1 (human)) was 84% and the kinase still bound, per cent of control (CSNK1A1 (human)) was 50%. The kinase still bound, per cent of control (MAP3K2 (human)) was 100%, the kinase still bound, per cent of control (FGFR1 (human)) was 73% and the kinase still bound, per cent of control (LATS1 (human)) was 93%. The kinase still bound, per cent of control (CDC42BPA (human)) was 85%, the kinase still bound, per cent of control (MAPK9 (human)) was 91% and the kinase still bound, per cent of control (NTRK2 (human)) was 85%. For the same compound, the kinase still bound, per cent of control (RPS6KA4 KD1 (human)) was 100%, the kinase still bound, per cent of control (CDK8 (human)) was 100% and the kinase still bound, per cent of control (SGK3 (human)) was 75% and 100%. The kinase still bound, per cent of control (PRKAA1 (human)) was 72%, the kinase still bound, per cent of control (TESK1 (human)) was 74% and the kinase still bound, per cent of control (TEK (human)) was 85%.

— the kinase profiling compilation of Christmann-Franck et al. (2016)
